The target in experiment [1] is T1, Brd2(1) (Homo sapiens, UniProt P25440).
T1 construct: Plasmids of the eight single BET bromodomain constructs Brd2(1), Brd2(2), Brd3(1), Brd3(2); His6 (N); made in house; host or cells: E. coli BL21(DE3)
Nature of the experiment: DSF thermal shift. It is filed as binding. As to conditions: wild type.

The target in experiment [2] is T2, Brd2(2) (Homo sapiens, UniProt P25440).
T2 construct: Plasmids of the eight single BET bromodomain constructs Brd2(1), Brd2(2), Brd3(1), Brd3(2); His6 (N); made in house; host or cells: E. coli BL21(DE3)
T2 sequence (P25440 344-453 limits assumed): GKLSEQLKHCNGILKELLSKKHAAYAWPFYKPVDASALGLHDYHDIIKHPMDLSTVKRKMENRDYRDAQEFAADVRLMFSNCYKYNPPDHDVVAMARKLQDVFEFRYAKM
Nature of the experiment: DSF thermal shift. It is filed as binding. To be noted: wild type.

Experiment [3] addresses T3, Brd3(1) (Homo sapiens, UniProt Q15059).
T3 construct: Plasmids of the eight single BET bromodomain constructs Brd2(1), Brd2(2), Brd3(1), Brd3(2); His6 (N); made in house; host or cells: E. coli BL21(DE3)
The experiment can be described thus: DSF thermal shift. It is filed as binding. As to conditions: wild type.

In experiment [4] the target is T4, Brd3(2) (Homo sapiens, UniProt Q15059).
T4 construct: Plasmids of the eight single BET bromodomain constructs Brd2(1), Brd2(2), Brd3(1), Brd3(2), Brd4(1), Brd4(2), Brdt(1) and Brdt(2); His6 (N); made in house; host or cells: E. coli BL21(DE3)
T4 sequence (Q15059 306-415 limits assumed): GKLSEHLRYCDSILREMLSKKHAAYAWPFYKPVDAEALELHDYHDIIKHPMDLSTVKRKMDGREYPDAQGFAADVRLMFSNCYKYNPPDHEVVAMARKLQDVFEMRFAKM
Nature of the experiment: DSF thermal shift. As to conditions: wild type. It is filed as binding.

Experiment [5] concerns the target T5, Brdt(1) (Homo sapiens, UniProt Q58F21).
T5 construct: Plasmids of the eight single BET bromodomain constructs Brd2(1), Brd2(2), Brd3(1), Brd3(2), Brd4(1), Brd4(2), Brdt(1) and Brdt(2); His6 (N); made in house; host or cells: E. coli BL21(DE3)
The experiment can be described thus: DSF thermal shift. It is filed as binding. As to conditions: wild type.

Experiment [6] has as its target T6, Brdt(2) (Homo sapiens, UniProt Q58F21).
T6 construct: Plasmids of the eight single BET bromodomain constructs Brd2(1), Brd2(2), Brd3(1), Brd3(2), Brd4(1), Brd4(2), Brdt(1) and Brdt(2); His6 (N); made in house; host or cells: E. coli BL21(DE3)
Nature of the experiment: DSF thermal shift. It is filed as binding. As to conditions: wild type.

In experiment [7] the target is T7, brd3(2)L344A (Homo sapiens, UniProt Q15059, L345A).
T7 construct: Plasmids of the eight single BET bromodomain constructs Brd2(1), Brd2(2), Brd3(1), Brd3(2), Brd4(1), Brd4(2), Brdt(1) and Brdt(2); His6 (N); made in house; host or cells: E. coli BL21(DE3)
T7 sequence (Q15059 306-415 L345A): as the sequence (Q15059 306-415 limits assumed) above, with L40A counted along it
The experiment can be described thus: DSF thermal shift. It is filed as binding. As to conditions: mutant.

Experiment [8] addresses T8, brdt(2)L306A (Homo sapiens, UniProt Q58F21, L306A).
T8 construct: Plasmids of the eight single BET bromodomain constructs Brd2(1), Brd2(2), Brd3(1), Brd3(2), Brd4(1), Brd4(2), Brdt(1) and Brdt(2); His6 (N); made in house; host or cells: E. coli BL21(DE3)
Nature of the experiment: DSF thermal shift. It is filed as binding. To be noted: mutant.

Experiment [9] addresses T9, Brd3(1)* (L070A) (Homo sapiens, UniProt Q15059, L70A).
T9 construct: Plasmids of the eight single BET bromodomain constructs Brd2(1), Brd2(2), Brd3(1), Brd3(2); His6 (N); made in house; host or cells: E. coli BL21(DE3)
Nature of the experiment: DSF thermal shift. It is filed as binding. As to conditions: mutant.

The target of experiment [10] is T10, brdt(1)L063A (Homo sapiens, UniProt Q58F21, L63A).
T10 construct: Plasmids of the eight single BET bromodomain constructs Brd2(1), Brd2(2), Brd3(1), Brd3(2), Brd4(1), Brd4(2), Brdt(1) and Brdt(2); His6 (N); made in house; host or cells: E. coli BL21(DE3)
The experiment can be described thus: DSF thermal shift. As to conditions: mutant. It is filed as binding.

Experiment [11] has as its system Brd2(1) and (2) wild type and leucine to alanine, valine and isoleucine mutants. Nature of the experiment: DSF thermal stabilization (FIG. 15). As to conditions: result in words. It is filed as binding, human. The procedure: DSF assays were performed on a LightCycler®480 from Roche or a Mx3005P Real Time PCR machine from Stratagene. […] SYPRO®Orange from Invitrogen Molecular Probes® was used as a reporter dye to monitor the denaturing process of the proteins. Samples were assayed on a 96-well plate with final protein concentrations of 2 μM for the LightCycler®480 and 6 μM for Mx3005P. Compounds were added at a final concentration of 10 μM for the LightCycler®480 and 30 μM for Mx3005P, while the tetra acetylated histone peptide was added to a final concentration of 100 μM and 300 μM respectively. […] The temperature was raised with a step of 0.6° C. per minute from 37° C. to 95° C. with the LightCycler®480 collecting 39 measurements per ° C., and 1° C. per minute from 25° C. to 95° C. with Mx3005P, collecting fluorescence readings at the end of each interval. Each sample was run in triplicates.
Collected data was analysed by IGOR Pro 6, a scientific software tool from Wave Metrics, Inc. Analysis was done following the recommendations of Niesen et al.. Fluorescence intensity was plotted as a function of temperature, generating a sigmoidal curve described by a two-state transition from folded to unfolded protein. Curves were fitted by the following sigmoidal equation: […]
A1 and A2 are the values of minimum and maximum intensities, respectively, x0 is the inflection point and dx is the rate. Fitted curves were differentiated in IGOR Pro 6 and the maximum of the first derivative was identified using the same program. These values correspond to the inflection points of the transition curves and thus to the melting temperatures of the proteins (Tm).

Experiment [12] deals with Brd2(1)*(Leu110-Ala) (Homo sapiens, UniProt P25440, L110A). Nature of the experiment: DSF thermal shift. It is filed as binding. Details: Plasmids of the eight single BET bromodomain constructs Brd2(1), Brd2(2), Brd3(1), Brd3(2); His6 (N); made in house; host or cells: E. coli BL21(DE3). As to conditions: mutant.
Chain of Brd2(1)*(Leu110-Ala) (P25440 74-180 L110A limits assumed): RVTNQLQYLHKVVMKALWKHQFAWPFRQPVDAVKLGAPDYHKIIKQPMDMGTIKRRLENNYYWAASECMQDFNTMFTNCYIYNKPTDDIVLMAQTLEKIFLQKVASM
Experiment [13] has as its target Brd2(2)*(Leu383-Ala) (Homo sapiens, UniProt P25440, L383A). Nature of the experiment: DSF thermal shift. It is filed as binding. Details: Plasmids of the eight single BET bromodomain constructs Brd2(1), Brd2(2), Brd3(1), Brd3(2); His6 (N); made in house; host or cells: E. coli BL21(DE3). As to conditions: mutant.

Chain of Brd2(2)*(Leu383-Ala) (P25440 344-453 L383A limits assumed): as the sequence (P25440 344-453 limits assumed) above, with L40A counted along it
T1 sequence (P25440 74-180 limits assumed): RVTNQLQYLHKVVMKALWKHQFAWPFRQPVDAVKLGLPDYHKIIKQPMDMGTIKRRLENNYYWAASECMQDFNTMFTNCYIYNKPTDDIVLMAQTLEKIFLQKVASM
T9 sequence (Q15059 34-140 L70A limits assumed): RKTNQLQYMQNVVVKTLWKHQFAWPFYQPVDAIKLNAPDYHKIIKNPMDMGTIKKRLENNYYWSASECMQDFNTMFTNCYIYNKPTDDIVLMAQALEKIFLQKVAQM
T3 sequence (Q15059 34-140 limits assumed): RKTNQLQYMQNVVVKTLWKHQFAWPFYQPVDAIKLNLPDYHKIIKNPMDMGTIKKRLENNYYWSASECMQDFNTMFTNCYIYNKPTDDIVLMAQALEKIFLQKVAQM

Turning to `COC(=O)[C@H](C)[C@@H]1N=C(c2ccc(Cl)cc2)c2cc(OC)ccc2-n2c(C)nnc21` (racemic) [Compound 7, (+−)-methyl (R)-2-((S)-6-(4-chlorophenyl)-8-methoxy-1-methyl-4H-benzo[f][1,2,4]triazolo[4,3-a][1,4]diazepin-4-yl)propanoate], in experiment [1], the “Thermal stabilisation brd2(1)” value was found to be 3.2 ± 0.2 °C and the “ΔTm Brd2(1)” value is 3.2 ± 0.2 K. Further, the “Thermal stabilisation brd2(1)” value in experiment [1] (listed as compound 7) turned out to be 3.2 °C. Moreover, in [2], the “Thermal stabilisation brd2(2)” value was determined as 5.6 ± 0.1 °C and the “ΔTm Brd2(2)” value amounted to 5.6 ± 0.1 K. Besides, in experiment [2] (listed as compound 7), the “Thermal stabilisation brd2(2)” value came to 5.6 °C. For the same compound, the “ΔTm Brd3(1)” value in experiment [3] was found to be 5.9 ± 0.2 K. The “ΔTm Brd3(2)” value in experiment [4] is 6.7 ± 1.0 K. In experiment [5], the “ΔTm Brdt(1)” value turned out to be 5.3 ± 0.3 K. Further, the “ΔTm Brdt(2)” value in [6] amounted to 3.7 ± 0.3 K. Also, the “ΔTm Brd3(2)* (L344A)” value in [7] was 15.6 ± 0.4 K. The “ΔTm Brdt(2)* (L306A)” value in experiment [8] stood at 7.9 ± 0.2 K. In addition, in experiment [9], the “ΔTm Brd3(1)* (L070A)” value is 10.8 ± 0.3 K. For the same compound, the “ΔTm Brdt(1)* (L063A)” value in experiment [10] is listed as 5.8 ± 0.3 K. Also, the “Thermal stabilization of Brd2 mutants versus wild types (FIG. 15)” value in experiment [11] is “increased thermal shifts of the leucine to alanine mutants”. For the same compound, in [12], the “Thermal stabilisation brd2(1)L110A” value worked out at 7.9 ± 0.2 °C and the “ΔTm Brd2(1)*(Leu110-Ala)” value is 7.9 ± 0.2 K. The “Thermal stabilisation brd2(1)L110A” value in [12] (listed as compound 7) stood at 7.9 °C. For the same compound, in experiment [13], the “Thermal stabilisation brd2(2)L383A” value amounted to 9.3 ± 0.2 °C and the “ΔTm Brd2(2)*(Leu383-Ala)” value is on record as 9.3 ± 0.2 K. For the same compound, the “Thermal stabilisation brd2(2)L383A” value in [13] (listed as compound 7) worked out at 9.3 °C.
Consider `CC[C@@H](C(=O)OC)[C@@H]1N=C(c2ccc(Cl)cc2)c2cc(OC)ccc2-n2c(C)nnc21` (racemic) [Compound 11, (+−)-methyl (R)-2-((S)-6-(4-chlorophenyl)-8-methoxy-1-methyl-4H-benzo[f][1,2,4]triazolo[4,3-a][1,4]diazepin-4-yl)butanoate], for which the “ΔTm Brd2(1)” value in experiment [1] is reported as 1.2 ± 0.2 K. For the same compound, in experiment [2], the “ΔTm Brd2(2)” value turned out to be 1.6 ± 0.1 K. In experiment [3], the “ΔTm Brd3(1)” value was 2.2 ± 0.1 K. For the same compound, the “ΔTm Brd3(2)” value in experiment [4] was 2.6 ± 0.7 K. Further, in experiment [5], the “ΔTm Brdt(1)” value is 1.5 ± 0.4 K. For the same compound, in experiment [6], the “ΔTm Brdt(2)” value is recorded as 1.3 ± 0.3 K. In experiment [7], the “ΔTm Brd3(2)* (L344A)” value is reported as 13.4 ± 0.6 K. For the same compound, the “ΔTm Brdt(2)* (L306A)” value in experiment [8] is 6.7 ± 0.4 K. For the same compound, the “ΔTm Brd3(1)* (L070A)” value in [9] is 10.4 ± 0.3 K. Moreover, the “ΔTm Brdt(1)* (L063A)” value in experiment [10] stood at 5.4 ± 0.3 K. The “Thermal stabilization of Brd2 mutants versus wild types (FIG. 15)” value in [11] is given as “increased thermal shifts of the leucine to alanine mutants”. Besides, in [12], the “ΔTm Brd2(1)*(Leu110-Ala)” value is 7.6 ± 0.2 K. Besides, in experiment [13], the “ΔTm Brd2(2)*(Leu383-Ala)” value came to 8.1 ± 0.2 K.
